Test [1] deals with SBC3 cells. In words: Imaris quantification of mitochondrial and nuclear areas/morphology. Type of test: cell-based, human. The note with it: SBC3. The method, then:
(§1) Imaris 9.9.0 (Bitplane, AG), with Surfaces and Cells modules, was used to generate mitochondria morphology data from 2D images and 2D Z-stack subsets. Surfaces were used to evaluate individual mitochondria from cell monolayers and spheroids. Detection parameters were optimized for visible mitochondria and nuclei in each group with varying signal intensities. Roundness ratios were calculated from Surface generated Bounding Box 00 Length measurements. Object lengths less than 0.1 μm were excluded, and lengths greater than 1.26 μm were separately analyzed as clusters. Thresholds were uniformly applied to roundness ratios to categorize mitochondria morphology as elongated (<0.599), intermediate (≥0.600-0.649), or round/fragmentated (≥0.650). The percentage of cells from total number is based on a ratio. A perfectly round object has a ratio of 1.0. The Cells module was used to detect and quantify mitochondria and nucleus area from cell monolayers. Identical parameters were applied to all groups with cell boundary detection based on mitochondria signals. Imaris includes nuclei in cytoplasm measurements, so mitochondrial area is calculated by subtracting nucleus area from cell cytoplasm area. Abnormal nuclei were excluded (<100 μm^2, >750 μm^2).
MitoTracker Red and Hoechst 33342 were used to validate Teri and Leflu effects on intact mitochondrial morphology in SBC3 and SBC5 cells. M1 and MDIVI1 compounds were used as positive controls because they are promoters of mitochondrial fusion. Mitochondrial and nuclear areas were quantified by analyzing object surface area and intensity in Imaris 9.9.0.

Test [2] has as its system SBC5 cells. Described as above. Type of test: cell-based, human. Particulars: SBC5, 10 μM. On the procedure: as §1
Next, we performed the same analysis with SBC5 cells. […] Mitochondrial elongation in SBC3 cells treated with Teri and Leflu is visible and correlates with Imaris Surface results. […] Although mitochondrial areas of SBC5 cells were not affected by Teri and Leflu treatments, elongations of individual mitochondria were detected with each treatment (FIG. 2I). […] Therefore, it is important to investigate the effects of Teri and Leflu on mitochondrial morphology and cell survival in combination with chemotherapeutic drugs.

For test [3], the system named is SCLC. The note with it: relapsed / second-line SCLC patients; cited from earlier work.
Test [4] concerns SBC3 cells. The experiment in a line: CCK-8 cell viability/cytotoxicity assay, 72 h. The note with it: SBC3, CCK-8 72 h, fixed concentrations of Teri and Carbo; read-out: IC50, single treatment and combination treatment. The format is cell-based, human. The method, then: The expression levels of DRP1 and DHODH in SCLC lines were compared with non-malignant BEAS 2B cells. […] Previous studies have shown that Leflu and its active metabolite Teri regulate mitochondrial morphology (9,10,26). […] In vitro cytotoxicity effect of Teri and Leflu was tested in a panel of SCLC cell lines. Ten SCLC cell lines were treated with increasing concentrations of each drug for 72 h.
Isobologram and CI50 values were calculated using the Chou-Talalay method and IC50 to find synergism (FIG. 3B).

Test [5] has as its system SBC5 xenograft. The experiment in a line: SBC5 mouse xenograft, Carbo/Leflu study. The format is in vivo. Particulars: Carbo 50 mg/kg, Leflu 7.5 mg/kg, i.p. twice a week. On the procedure:
Athymic nude nu/nu mice were obtained from Charles River, Wilmington, MA, and were acclimated for a week before beginning the experiment. All animal experiments were carried out in accordance with a protocol approved by the Institutional Animal Care and Use Committee COH (IACUC #16004). For treatments, mice were divided into 4 groups with five mice per group and subcutaneously injected into one flank with 2×10^6 SBC3 or SBC5 cells suspensions in 100 μl of PBS. Treatment started on the 14th day when tumors became palpable. Two in vivo studies were done in this project. SBC3 and SBC 5 xenograft with i) vehicle control, ii) […] 50 mg/kg, iii) Leflu 7.5 mg/kg, and iv) […]/Leflu. SBC3 with i) vehicle control, ii) Lur 0.5 mg/kg, iii) Leflu 3.8 mg/kg, and iv) Lur/Leflu. Treatments were given to mice via i.p. twice a week for 6 weeks. Animals were examined daily for signs of tumor growth. Tumors were measured in two dimensions using calipers and body weights were recorded. Animals were photographed on days 1, 5, 10, 15, 20, 25, 30, 35, and 40 after treatment. Tumors were removed on day 40 and photographed. At the end of the study, the mice were euthanized by CO2 asphyxiation followed by cervical dislocation. The tumor weights were compared between groups using an unpaired Student's t-test. […] Mean immunofluorescence intensities were calculated with ZEN 2.3 Lite software.

Test [6] deals with SBC3 cells. The experiment in a line: LC-MS of nucleotides, nucleosides and nucleobases in cell pellets. The format is cell-based, human. On the set-up: unit not given here. On the procedure: These studies were performed by Creative Proteomics in their facility in Shirley, NY. Each sample was placed into 250 μL of 80% methanol. Tissue samples were weighed in 2-mL Eppendorf tubes, and 80% methanol was added at 10 μL per mg of raw tissue. The tissue and cell samples were then homogenized on a MM 400 mill mixer with the aid of two 4-mm metal beads at a shaking frequency of 30 Hz for 2 min and the homogenization step was repeated twice. The samples were placed at −20° C. for 1 h and then centrifuged at 21,000×g for 10 min. The clear supernatants were collected for LC-MS quantitation. Protein content was measured from protein pellets by Bradford protein assays and used to normalize metabolite concentrations from cell pellets. A stock solution contained standard substances of all the targeted nucleotides, nucleosides, and nucleobases were prepared at 200 nmol/mL for each in an internal standard solution of ^13C- and/or ^15N-labeling AMP, ATP, GMP, GTP, UMP, UTP, adenine and adenosine. This solution was serially diluted with the same solution to prepare 10-point calibration solutions in a concentration range of 0.0001 to 50 μM. 10 μL of the supernatant of each sample was mixed with 90 μL of the internal standard solution. 10 μL aliquots of the sample solutions and the standard solutions were injected into a C18 LC column (2.1*150 mm, 1.9 μm) to run UPLC-MRM/MS on a Waters Acquity UPLC system coupled to a Sciex QTRAP 6500 Plus mass spectrometer operated in the negative-ion mode for detection of nucleotides. The mobile phase was a triethylamine buffer (A) and acetonitrile/methanol (1:1) (B) for binary gradient elution (5% to 60% B in 25 min), at 0.25 mL/min and 55° C. For quantitation of nucleosides and nucleobases, 10-μL aliquots of the sample solutions and the standard solutions were injected onto a polar reversed-phase C18 column (2.1*100 mm, 1.6 μm) to run UPLC-MRM/MS on a Waters Acquity UPLC system coupled to a Sciex QTRAP 6500 Plus mass spectrometer operated in the positive-ion mode. The mobile phase was 0.1% formic acid-ammonium formate buffer (A) and methanol (B) for binary gradient elution (0% to 40% B in 15 min), at 0.25 mL/min and 30° C. Concentrations of the detected nucleotides, nucleosides or nucleobases in the UPLC-MRM/MS runs were calculated with internal-standard calibration by interpolating the constructed linear-regression curves of individual compounds, with the analyte-to-internal standard peak area ratios measured from the sample solutions.
The effect of treatment on the concentration of purines and pyrimidines for both cell lines and xenograft were modelled as concentration=Treatment1+Treatment2+Treatment1*Treatment2. For cell lines, Treatment 1-2 were […] and Teri, while for the xenografts—Lur and Leflu respectively. The significance of the effects was ascertained by p-values associated with the coefficients of the model (20). The p-values were FDR corrected to account for repeated testing. The coefficient for the interaction term (Treatment1*Treatment2) and its associated p-value correspond to the synergistic effect of the two treatments. Coefficients and p-values for the rest of the terms indicate significance of each treatment alone. Statistical analysis was conducted in R.

Test [7] relates to SBC3 xenograft. In words: SBC3 mouse xenograft, Carbo/Leflu study. Type of test: in vivo. On the procedure: Athymic nude nu/nu mice were obtained from Charles River, Wilmington, MA, and were acclimated for a week before beginning the experiment. All animal experiments were carried out in accordance with a protocol approved by the Institutional Animal Care and Use Committee COH (IACUC #16004). For treatments, mice were divided into 4 groups with five mice per group and subcutaneously injected into one flank with 2×10^6 SBC3 or SBC5 cells suspensions in 100 μl of PBS. Treatment started on the 14th day when tumors became palpable. Two in vivo studies were done in this project. SBC3 and SBC 5 xenograft with i) vehicle control, ii) […] 50 mg/kg, iii) Leflu 7.5 mg/kg, and iv) […]/Leflu. SBC3 with i) vehicle control, ii) Lur 0.5 mg/kg, iii) Leflu 3.8 mg/kg, and iv) Lur/Leflu. Treatments were given to mice via i.p. twice a week for 6 weeks. Animals were examined daily for signs of tumor growth. Tumors were measured in two dimensions using calipers and body weights were recorded. Animals were photographed on days 1, 5, 10, 15, 20, 25, 30, 35, and 40 after treatment. Tumors were removed on day 40 and photographed. At the end of the study, the mice were euthanized by CO2 asphyxiation followed by cervical dislocation. The tumor weights were compared between groups using an unpaired Student's t-test. A portion of the tumor was fixed in 10% buffered formaldehyde solution and paraffin-embedded for immuno-staining. FFPE tumor sections were stained with pDRP Ser^616 antibody. Tumor sections were deparaffinized and rehydrated, followed by heat-mediated antigen retrieval (pH 6, Dako). After permeabilization and blocking, tumor sections were stained with pDRP1 Ser^616 antibody overnight, washed and incubated with Alexa 488 secondary antibody for one hour, mounted and observed on an LSM 880 with a 10×/0.45 NA objective (Carl Zeiss). Immunofluorescent confocal images were acquired for each treatment (magnification:100×). Mean immunofluorescence intensities were calculated with ZEN 2.3 Lite software.

With `CC(=NNc1c(Cl)cc(Cl)cc1Cl)c1cc(Cl)ccc1O` [M1], in test [1], the “Mitochondrial elongation (Airyscan imaging)” value was “moderately affected” and the “effect on mitochondrial or nuclear areas” value is “did not affect”.

In the case of `COc1cc(-n2c(=S)[nH]c3ccccc3c2=O)c(Cl)cc1Cl` [MDIVI1], in test [1], the “Mitochondrial elongation (Airyscan imaging)” value is recorded as “moderately affected” and the “effect on mitochondrial or nuclear areas” value is given as “did not affect”. Also, the Mitochondrial area in test [2] is 419.9±13.26 μm^2.

For the compound `CC[C@@]1(O)C(=O)OCc2c1cc1n(c2=O)Cc2cc3c(CN(C)C)c(O)ccc3nc2-1` [topotecan, Topotecan], in test [3], the ORR was 24% and the “median PFS” value is 3.4 months.

Consider carboplatin, for which the half-maximal inhibitory concentration (IC50) in test [4] was determined as 4.12 µM. For the same compound, the “final tumor weight (day 40)” value in test [5] came to 0.64 ± 0.10 g. Further, in test [6], the ATP concentration is on record as 27.92±0.55, the UTP concentration came to 9.29±0.4, the XMP concentration is given as 0.35±0.18 and the dATP concentration was 0.17±0.002. Besides, in test [6], the dCTP concentration is 0.06±0.004, the dm5UTP concentration was found to be 0.44±0.001 and the xanthosine concentration amounted to 0.094±0.045. In test [7] (SBC3 xenograft FFPE tumors), the “pDRP1 Ser616 immunofluorescence in tumor sections” value was “significant decrease”. Also, in test [7] (SBC3 xenograft, day 40, vs control), the “reduction in tumor size/weight” value was roughly 58%. In addition, the “average final tumor weight at end of study (day 40)” value in test [7] (SBC3 xenograft, Carbo 50 mg/kg, Leflu 7.5 mg/kg, i.p. twice a week) was determined as 0.75 ± 0.10 g.

As a reminder, the IC50 is the concentration needed to halve the response being measured.

Values taken from patent publication US20250041313A1, “COMBINATION THERAPY FOR TREATMENT OF CANCER” (CITY OF HOPE, priority 2023, published 2025).
